Measured values: publication PMC7228089, “Odiparcil, a potential glycosaminoglycans clearance therapy in mucopolysaccharidosis VI—Evidence from in vitro and in vivo models” (PLoS ONE, 2020)

What was measured:
Arsb^- mice [1] = test: Granule accumulation in leukocytes (May-Grunwald-Giemsa blood smears); assay type: in vivo; conditions: early disease treatment, 6 months, high dose (4.5 g/kg diet)
Protocol: (§1) MPS VI model nonsense mutation Arsb^m1J homozygous mice (referred to as Arsb^- throughout the manuscript) and WT littermates were obtained from internal breeding of stock mice derived from The Jackson Laboratory strain No: 005598 (C57BL/6J-Arsb^m1J/GrsrJ). Genotyping and Arsb^m1J mutation identification were performed according to the protocol provided by The Jackson Laboratory. Each study group contained mix of male and female: 6 animals in disease progression studies and between 8 and 12 animals in odiparcil treatment studies.
Housing conditions. The animals were housed in groups of 3–10 (for mice) or 2 (for rats) in polypropylene cages (floor area = 1032 cm^2) under standard conditions: room temperature (22 ± 2°C), hygrometry (55 ± 10%), light/dark cycle (12h/12h), air replacement (15–20 volumes/hour), water and food ad libitum. Mice were allowed to habituate for at least 5 days prior to experimentation. Mice were numbered by marking their tail using indelible markers. […]
Quantification of the accumulation of granules in leukocytes was done after May-Grunwald–Giemsa staining of blood smears and microscopic examination. […] Only blood smears from WT chow diet, Arsb^- chow diet and Arsb^- treated with high dose of odiparcil (4.5 g/kg diet) were analyzed. […]

Arsb^- mice [2] = test: Urinary excretion of total sulphated GAG (Blyscan) in mice treated with odiparcil; assay type: in vivo
Protocol: as §1
Housing conditions. The animals were housed in groups of 3–10 (for mice) or 2 (for rats) in polypropylene cages (floor area = 1032 cm^2) under standard conditions: room temperature (22 ± 2°C), hygrometry (55 ± 10%), light/dark cycle (12h/12h), air replacement (15–20 volumes/hour), water and food ad libitum. […]
Total sulphated GAG in cell culture media were determined colorimetrically by DMMB method (described in [31] adapted for cell culture media). Total sulphated GAG in snap frozen liver and kidney samples and urine were measured using Blyscan assay from Biocolor Company (UK) following manufacturer’s instructions. […] For GAG in tissues quantification, individual pieces (approximately 50 mg) were removed from the frozen samples (liver and kidney), weighed and digested in 1 mL papain solution prepared according to the Blyscan kit protocol. […]

[3] = more than 30 clinical trials, total of 1900 subjects; earlier development as antithrombotic agent; cited from earlier work
[4] = system: MPS VI patient fibroblasts GM00538; test: Number of cultured cells (viability) during odiparcil treatment; assay type: cell-based, human; conditions: different odiparcil concentrations, growing and confluent conditions
Protocol: (§2) Primary skin fibroblasts from MPS VI patients GM00538 and GM02572 were obtained from the NIGMS Human Genetic Cell Repository at the Coriell Institute for Medical Research. Cell culturing was done according to the conditions provided by the Coriell Institute. For evaluation of the effect of odiparcil, cells were seeded in 96 well imaging plates (Falcon Cat N 353219) and two types of treatment were evaluated: i) prophylactic conditions—cells were treated with odiparcil before reaching confluence, 24 hours after plating; and ii) curative conditions—cells were treated with odiparcil after reaching confluence (10 days culturing). Cells were treated by odiparcil added to the culture media. This was done by replacing the initial culture media by media containing 0.1% DMSO with or without odiparcil (at 0.01, 0.03, 0.1, 0.3, 1, 3 and 10 μM). For treatment, the cells were incubated for 72 hours at 37°C, 5% CO2. All experimental conditions were performed in triplicate, i.e., 3 wells/test condition.
After odiparcil treatment as described above, culture media were removed to be used for dimethylmethylene blue (DMMB) assay and the cells were fixed in PFA 4%. Immunofluorescent staining was done following standard protocol comprising permeabilization with 0.1% Triton X 100, blocking with 2% NGS, staining with primary antibody and staining with secondary antibody and Hoechst (for nuclei visualization). […]

[5] = system: Primary skin fibroblasts from MPS VI patients GM00538 and GM02572; test: Intracellular chondroitin sulphate ([CS-56] immunofluorescence) in MPS VI patient skin fibroblasts; assay type: cell-based, human; conditions: 72 h
Protocol: as §2
After odiparcil treatment as described above, culture media were removed to be used for dimethylmethylene blue (DMMB) assay and the cells were fixed in PFA 4%. […]
For statistical analyses, commercial software (GraphPad Prism 5) was used. EC50 were calculated using the build in function Nonlinear fit for “log (inhibitor) vs. response—Variable slope (four parameters)”. […]

For Cc1cc(=O)oc2cc(O[C@@H]3SC[C@@H](O)[C@H](O)[C@H]3O)ccc12 [Odiparcil, 4-methyl-7-(5-thio-β-D-xylopyranosyloxy)-2 H-chromen-2-one], the “Leukocytes with high granules accumulation” value (Arsb^- mice [1]) was “reduced number of leukocytes with high granules accumulation”, the “Urinary GAG after discontinuation of the treatment” value (Arsb^- mice [2]; Arsb^- mice, two weeks after discontinuation) was “no elevated GAG were detected on top of the basal level” and the “Total sulphated GAG in urine” value (Arsb^- mice [2]; wild type and Arsb^- mice, oral 1.5 or 4.5 g/kg diet, after 3 and 6 months, early and advanced disease protocols) was “elevation of total GAG in urine”. For the same compound, the “Safety and tolerability in clinical trials” value [3] was “good safety and tolerability”, the “Effect on viability of the cells (number of cells)” value [4] was “no effect on viability of the cells” and the “Effect on intracellular pool of CS” value ([5]; 10 μM odiparcil) was “almost completely eliminated intracellular pool of CS”. It also gave an EC50 ([5]; Homo sapiens, Skin fibroblast, growing and confluent cell culture conditions, read-out: EC50 for the reduction of intracellular CS levels) of about 1 µM.
